Measured values published in US20110178104A1, “Anti-Heparin Compounds” (POLYMEDIX INC., priority 2010, published 2011).
Several values for one entry are separate records, joined by “and”; a condition that tells them apart may be missing. Equal values may be shown once.

Key:
fondaparinux = assay: FXa amidolytic assay (Example 10), fondaparinux; conditions: read-out: Fondap FXa EC50; fondaparinux 0.02 μg/mL; human antithrombin, bovine Factor Xa
enoxaparin = assay: FXa amidolytic assay (Example 10), enoxaparin; conditions: read-out: Enox FXa EC50; enoxaparin 0.1 ug/ml; human antithrombin, bovine Factor Xa
Unfractionated heparin = assay: aPTT clotting assay, UFH 0.4 U/mL in plasma (Example 10); type: biochemical; conditions: unfractionated heparin 0.4 U/mL in plasma; aPTT clotting
Description: aPTT clotting Assay: Unfractionated heparin was mixed with plasma at a final concentration of 0.4 U/mL (or concentration which increases aPTT time to between 120 and 300 seconds). […] The ACL Elite Hemostasis analyzer (Beckman Coulter™) was used to add aPTT reagent (HemosIL SynthASil) to supplemented plasma. Clotting was initiated by addition of CaCl2 and time to clot was recorded.

tinzaparin = assay: FXa amidolytic assay (Example 10), tinzaparin; conditions: read-out: Tinzap FXa EC50; tinzaparin 0.1 ug/ml; human antithrombin, bovine Factor Xa

Compound	EC50 (fondaparinux)	EC50 (enoxaparin)	EC50 (Unfractionated heparin)	EC50 (tinzaparin)
COc1ccc(NC(=O)[C@H](CCCCN)NC(=O)c2cc(NC(=O)[C@@H](N)CCCCN)ccc2OC)cc1C(=O)N[C@@H](CCCCN)C(=O)Nc1ccc(OC)c(C(=O)N[C@@H](CCCCN)C(=O)Nc2ccc(OC)c(C(=O)N[C@H](C(=O)O)C(C)C)c2)c1 [Compound 267]	6990 nM	543 nM	1670 nM	313 nM
COc1ccc(NC(=O)[C@H](CCCCN)NC(=O)c2cc(NC(=O)[C@H](CCCCN)NC(=O)c3cc(NC(=O)[C@H](CCCCN)NC(=O)c4cc(NC(=O)[C@@H](N)CCCCN)ccc4OC)ccc3OC)ccc2OC)cc1C(=O)NCC(=O)O [Compound 260]	5080 nM and 3970 nM	399 nM and 284 nM	1660 nM and 1410 nM	247 nM and 215 nM
COc1ccc(NC(=O)[C@H](CCCCN)NC(=O)c2cc(NC(=O)[C@H](CCCCN)NC(=O)c3cc(NC(=O)[C@H](CCCCN)NC(=O)c4cc(NC(=O)[C@@H](N)CCCCN)ccc4OC)ccc3OC)ccc2SC)cc1C(N)=O [Compound 252]	> 10000 nM	> 5000 nM	> 10000 nM	> 5000 nM
COc1ccc(NC(=O)[C@H](CCCNC(=N)N)NC(=O)c2cc(NC(=O)[C@@H](N)CCCNC(=N)N)ccc2OC)cc1C(=O)N[C@@H](CCCNC(=N)N)C(=O)Nc1ccc(OC)c(C(=O)N[C@@H](CCCNC(=N)N)C(=O)Nc2ccc(OC)c(C(=O)N3CCC[C@H]3C(N)=O)c2)c1 [Compound 234]	> 10000 nM	1010 nM	> 10000 nM	446 nM
COc1cc(OC)c(C(=O)N[C@H]2CC[C@H](NC(=O)c3cc(C(=O)NCCN(C)C)c(OCCCCCN)cc3OCCCCCN)CC2)cc1C(=O)NCCN(C)C [Compound 228]	> 10000 nM	281 nM	1110 nM	> 5000 nM
COc1ccc(NC(=O)[C@H](CCCCN)NC(=O)c2cc(NC(=O)[C@H](CCCCN)NC(=O)c3cc(NC(=O)[C@H](CCCCN)NC(=O)c4cc(NC(=O)[C@@H](N)CCCCN)ccc4SC)ccc3OC)ccc2OC)cc1C(N)=O [Compound 245]	4010 nM and 3190 nM	256 nM and 224 nM	1310 nM and 1460 nM	118 nM and 125 nM
COc1ccc(NC(=O)[C@H](CCCCN)NC(=O)c2cc(NC(=O)[C@H](CCCCN)NC(=O)c3cc(NC(=O)[C@H](CCCNC(N)=O)NC(=O)c4cc(NC(=O)[C@@H](N)CCCCN)ccc4OC)ccc3OC)ccc2OC)cc1C(N)=O [Compound 257]	1450 nM	205 nM	1330 nM	130 nM
COc1ccc(NC(=O)[C@H](CCCCN)NC(=O)c2cc(NC(=O)[C@H](CCCCN)NC(=O)c3cc(NC(=O)[C@H](CCCCN)NC(=O)c4cc(NC(=O)[C@@H](N)CCCCN)ccc4OC)ccc3OC)ccc2OC)cc1C(=O)N[C@@H](C)C(=O)O [Compound 262]	5570 nM	344 nM	1260 nM	213 nM
COc1ccc(NC(=O)[C@H](CCCCN)NC(=O)c2cc(NC(=O)[C@H](CCCCN)NC(=O)c3cc(NC(=O)[C@H](CCCCN)NC(=O)c4c[nH]c5ccccc45)ccc3OC)ccc2OC)cc1C(N)=O [Compound 238]	1860 nM	839 nM	5340 nM	581 nM
COc1ccc(NC(=O)[C@H](CCCCN)NC(=O)c2cc(NC(=O)[C@H](CCCCN)NC(=O)c3cc(NC(=O)[C@H](CCCCN)NC(=O)c4cccc(N(C)C(=O)[C@@H](N)CCCCN)c4)ccc3OC)ccc2OC)cc1C(N)=O [Compound 242]	> 10000 nM	> 5000 nM	1390 nM	> 5000 nM
COc1cc(OC)c(C(=O)N[C@H]2CC[C@@H](NC(=O)c3cc(C(=O)NCCN(C)C)c(OCCNC(=N)N)cc3OCCNC(=N)N)CC2)cc1C(=O)N[C@H]1CC[C@@H](NC(=O)c2cc(C(=O)NCCN(C)C)c(OCCNC(=N)N)cc2OCCNC(=N)N)CC1 [Compound 225]		1060 nM	12100 nM	359 nM
COc1ccc(NC(=O)[C@H](CCCCN)NC(=O)c2cc(NC(=O)[C@H](CCCCN)NC(=O)c3cc(NC(=O)[C@H](CCCCN)NC(=O)c4cc(C(=O)NCCCCCN)c(OC)cc4OC)ccc3OC)ccc2OC)cc1C(N)=O [Compound 248]	1840 nM	208 nM	2080 nM	158 nM
COc1ccc(NC(=O)[C@H](CCCNC(N)=O)NC(=O)c2cc(NC(=O)[C@H](CCCCN)NC(=O)c3cc(NC(=O)[C@H](CCCCN)NC(=O)c4cc(NC(=O)[C@@H](N)CCCCN)ccc4OC)ccc3OC)ccc2OC)cc1C(N)=O [Compound 259]	2880 nM	267 nM	1570 nM	180 nM
COc1cc(OC)c(C(=O)N[C@H]2CC[C@H](NC(=O)c3cc(C(=O)NCCN(C)C)c(OCCNC(=N)N)cc3OCCNC(=N)N)CC2)cc1C(=O)N[C@H]1CC[C@H](NC(=O)c2cc(C(=O)NCCN(C)C)c(OCCNC(=N)N)cc2OCCNC(=N)N)CC1 [Compound 226]		852 nM	12900 nM	343 nM

The next lines start with the values.

EC50 (fondaparinux)	EC50 (enoxaparin)	EC50 (Unfractionated heparin)	EC50 (tinzaparin)	Compound
> 10000 nM	> 5000 nM	> 10000 nM	> 5000 nM	COc1cc(OC)c(C(=O)N[C@H]2CC[C@@H](NC(=O)c3cc(C(=O)N4CCC(N)CC4)c(OC)cc3OC)CC2)cc1C(=O)N[C@H]1CC[C@@H](N=C(N(C)C)N(C)C)CC1 [Compound 420]
1160 nM	326 nM	2960 nM	250 nM	COc1ccc(NC(=O)[C@H](CCC(=O)O)NC(=O)c2cc(NC(=O)[C@H](CCCNC(=N)N)NC(=O)c3cc(NC(=O)[C@H](CCCNC(=N)N)NC(=O)c4cc(NC(=O)[C@@H](N)CCCNC(=N)N)ccc4OC)ccc3OC)ccc2OC)cc1C(N)=O [Compound 323]
> 10000 nM	> 5000 nM	> 10000 nM	> 5000 nM	COc1cc(OC)c(C(=O)N[C@H]2CC[C@@H](NC(=O)c3cc(C(=O)N4CCC(N)CC4)c(OC)cc3OC)CC2)cc1C(=O)N[C@H]1CC[C@@H](NC(=O)c2cc(C(=O)N3CCC(N)CC3)c(OC)cc2OC)CC1 [Compound 419]
1750 nM	329 nM	2040 nM	223 nM	COc1ccc(NC(=O)[C@H](CCCCN)NC(=O)c2cc(NC(=O)[C@H](CCC(=O)O)NC(=O)c3cc(NC(=O)[C@H](CCCCN)NC(=O)c4cc(NC(=O)[C@@H](N)CCCCN)ccc4OC)ccc3OC)ccc2OC)cc1C(N)=O [Compound 316]
1890 nM	608 nM	1250 nM	426 nM	COc1cc(OC)c(C(=O)Nc2ccc(NC(=O)c3cc(C(=O)Nc4ccc(N=C(N(C)C)N(C)C)cc4)c(OC)cc3OC)cc2)cc1C(=O)NCCN [Compound 422]
> 10000 nM	> 5000 nM	> 10000 nM	> 5000 nM	COc1cc(OC)c(C(=O)N2CCC(NC(=O)c3cc(C(=O)NCCN)c(OC)cc3OC)CC2)cc1C(=O)O [Compound 394]
508 nM	133 nM	1760 nM	108 nM	COc1ccc(NC(=O)[C@H](CCCNC(=N)N)NC(=O)c2cc(NC(=O)[C@H](CCCNC(=N)N)NC(=O)c3cc(NC(=O)[C@H](CCCNC(=N)N)NC(=O)c4cc(NC(=O)[C@@H](N)CCCNC(=N)N)ccc4OCC(=O)O)ccc3OC)ccc2OC)cc1C(N)=O [Compound 289]
159 nM	238 nM	1200 nM	220 nM	COc1cc(OC)c(C(=O)Nc2ccc(NC(=O)c3cc(C(=O)Nc4ccc(NC(=O)c5cc(C(=O)NCCN)c(OC)cc5OC)cc4)c(OC)cc3OC)cc2)cc1C(=O)NCCN [Compound 421]
295 nM	276 nM	6080 nM	278 nM	COc1ccc(NC(=O)[C@H](CCCNC(=N)N)NC(=O)c2cc(NC(=O)[C@H](CCCNC(=N)N)NC(=O)c3cc(NC(=O)[C@H](CCCNC(=N)N)NC(=O)c4cc(NC(C)=O)ccc4OC)ccc3OC)ccc2OC)cc1C(=O)N[C@@H](Cc1ccc(O)cc1)C(=O)O [Compound 301]
> 10000 nM	> 5000 nM	> 10000 nM	> 5000 nM	COc1cc(OC)c(C(=O)NCCCNC(=O)c2cc(C(=O)NCCCN)c(OC)cc2OC)cc1C(=O)O [Compound 409]
> 10000 nM	> 5000 nM	> 10000 nM	> 5000 nM	COc1cc(OC)c(C(=O)N[C@H]2CC[C@H](NC(=O)c3cccc(C(=O)O)c3)CC2)cc1C(=O)NCCN [Compound 399]
> 10000 nM	> 5000 nM	> 10000 nM	> 5000 nM	COc1cc(OC)c(C(=O)N[C@H]2CC[C@H](NC(=O)c3cc(C(=O)O)ncn3)CC2)cc1C(=O)NCCN [Compound 403]
3120 nM	219 nM	1640 nM	135 nM	COc1ccc(NC(=O)[C@H](CCCCN)NC(=O)c2cc(NC(=O)[C@H](CCCCN)NC(=O)c3cc(NC(=O)[C@H](CCCCN)NC(=O)c4cc(NC(=O)[C@@H](N)CCCCN)ccc4OC)ccc3OCC(=O)O)ccc2OC)cc1C(N)=O [Compound 271]
> 10000 nM	> 5000 nM	> 10000 nM	> 5000 nM	COc1ccc(NC(=O)[C@H](CCCCN)NC(=O)c2cc(C(=O)N[C@@H](CCCCN)C(=O)Nc3ccc(OC)c(C(=O)N[C@@H](CCCCN)C(N)=O)c3)c(OC)cc2OC)cc1C(=O)N[C@@H](CCCCN)C(N)=O [Compound 427]
1580 nM	198 nM		138 nM	COC(=O)CCCC(=O)N[C@@H](CCCCN)C(=O)Nc1ccc(OC)c(C(=O)N[C@@H](CCCCN)C(=O)Nc2ccc(OC)c(C(=O)N[C@@H](CCCCN)C(=O)Nc3ccc(OC)c(C(=O)N[C@@H](CCCCN)C(=O)Nc4ccc(OC)c(C(N)=O)c4)c3)c2)c1 [Compound 341]
